ChEMBL document CHEMBL5058649, “Data for DCP probe BAY 1816032” (2022)

Experiments:
[1] = target: Sodium-dependent serotonin transporter (Homo sapiens) (UniProt P31645); assay: Transporter, Serotonin (5- Hydroxytryptamine) (SERT) Eurofins-Panlabs radioligand binding assay; conditions: Compound concentration 10.0 uM
[2] = target: Adenosine receptor A2a (Homo sapiens) (UniProt P29274); conditions: Compound concentration 10.0 uM
[3] = target: Inhibitor of nuclear factor kappa-B kinase subunit epsilon (Homo sapiens) (UniProt Q14164); assay: IKK-epsilon DiscoveRx kinase panel; conditions: Compound concentration 1.0 uM
[4] = target: Mitogen-activated protein kinase kinase kinase kinase 5 (Homo sapiens) (UniProt Q9Y4K4); assay: MAP4K5 DiscoveRx kinase panel; conditions: Compound concentration 1.0 uM
[5] = target: Tyrosine-protein kinase ABL2 (Homo sapiens) (UniProt P42684); assay: ABL2 DiscoveRx kinase panel; conditions: Compound concentration 1.0 uM
[6] = target: Death-associated protein kinase 2 (Homo sapiens) (UniProt Q9UIK4); assay: DAPK2 DiscoveRx kinase panel; conditions: Compound concentration 1.0 uM
[7] = target: Calcium/calmodulin-dependent protein kinase type II subunit alpha (Homo sapiens) (UniProt Q9UQM7); assay: CAMK2A DiscoveRx kinase panel; conditions: Compound concentration 1.0 uM
[8] = target: L-type calcium channel, dihydropyridine site (Cav1.2 alpha-1C) (Homo sapiens, UniProt Q13936); assay: Inhibition of Calcium Channel L-Type, Dihydropyridine at 10 µM in the Eurofins-Panlabs radioligand binding assay (Eurofins_assay_214600); parameters: ligand concentration 0.1 nM, non-specific ligand with concentration 1 µM Nitrendipine, incubation time 90 min, incubation temperature 25 °C; conditions: Wistar, rat, rat cerebral cortex preparation, probe [3H] Nitrendipine; compound concentration 10 uM; target entry is the homologue from another species
[9] = target: Casein kinase I isoform epsilon (Homo sapiens) (UniProt P49674); assay: CSNK1E DiscoveRx kinase panel; conditions: Compound concentration 1.0 uM
[10] = target: Rhodopsin kinase GRK7 (Homo sapiens) (UniProt Q8WTQ7); assay: GRK7 DiscoveRx kinase panel; conditions: Compound concentration 1.0 uM
[11] = target: Ribosomal protein S6 kinase alpha-5 (Homo sapiens) (UniProt O75582); assay: RPS6KA5(Kin.Dom.2-C-terminal) DiscoveRx kinase panel; conditions: Compound concentration 1.0 uM
[12] = target: Casein kinase II subunit alpha (Homo sapiens) (UniProt P68400); assay: CSNK2A1 DiscoveRx kinase panel; conditions: Compound concentration 1.0 uM
[13] = target: Cyclin-dependent kinase 5 (Homo sapiens) (UniProt Q00535); assay: CDK5 DiscoveRx kinase panel; conditions: Compound concentration 1.0 uM
[14] = target: Mitogen-activated protein kinase kinase kinase kinase 1 (Homo sapiens) (UniProt Q92918); assay: HPK1 DiscoveRx kinase panel; conditions: Compound concentration 1.0 uM
[15] = target: 5-hydroxytryptamine receptor 2B (Homo sapiens) (UniProt P41595); conditions: Compound concentration 10.0 uM
[16] = target: Sodium-dependent noradrenaline transporter (Homo sapiens, UniProt P23975); conditions: Compound concentration 10.0 uM
[17] = target: Kappa-type opioid receptor (Homo sapiens) (UniProt P41145); conditions: Compound concentration 10.0 uM
[18] = target: cAMP-dependent protein kinase catalytic subunit PRKX (Homo sapiens) (UniProt P51817); assay: PRKX DiscoveRx kinase panel; conditions: Compound concentration 1.0 uM
[19] = target: Mitogen-activated protein kinase kinase kinase 5 (Homo sapiens) (UniProt Q99683); assay: ASK1 DiscoveRx kinase panel; conditions: Compound concentration 1.0 uM
[20] = target: RAF proto-oncogene serine/threonine-protein kinase (Homo sapiens) (UniProt P04049); assay: RAF1 DiscoveRx kinase panel; conditions: Compound concentration 1.0 uM
[21] = target: Cyclin-dependent kinase 7 (Homo sapiens) (UniProt P50613); assay: CDK7 DiscoveRx kinase panel; conditions: Compound concentration 1.0 uM
[22] = target: Receptor-interacting serine/threonine-protein kinase 1 (Homo sapiens) (UniProt Q13546); assay: RIPK1 DiscoveRx kinase panel; conditions: Compound concentration 1.0 uM
[23] = target: Mitogen-activated protein kinase 14 (Homo sapiens) (UniProt Q16539); assay: p38-alpha DiscoveRx kinase panel; conditions: Compound concentration 1.0 uM
SK-BR-3 = assay: SK-BR-3 cell line Proliferation assay; format: functional, Homo sapiens; conditions: time 4 day
[24] = target: Angiopoietin-1 receptor (Homo sapiens) (UniProt Q02763); assay: TIE2 DiscoveRx kinase panel; conditions: Compound concentration 1.0 uM
[25] = target: Phosphatidylinositol 4,5-bisphosphate 3-kinase catalytic subunit beta isoform (Homo sapiens) (UniProt P42338); assay: PIK3CB DiscoveRx kinase panel; conditions: Compound concentration 1.0 uM
[26] = target: Mitogen-activated protein kinase kinase kinase 2 (Homo sapiens) (UniProt Q9Y2U5); assay: MAP3K2 DiscoveRx kinase panel; conditions: Compound concentration 1.0 uM
[27] = target: Homeodomain-interacting protein kinase 2 (Homo sapiens) (UniProt Q9H2X6); assay: HIPK2 DiscoveRx kinase panel; conditions: Compound concentration 1.0 uM
[28] = target: Protein kinase C theta type (Homo sapiens) (UniProt Q04759); assay: PRKCQ DiscoveRx kinase panel; conditions: Compound concentration 1.0 uM
[29] = target: Phosphatidylinositol 4,5-bisphosphate 3-kinase catalytic subunit gamma isoform (Homo sapiens) (UniProt P48736); assay: PIK3CG DiscoveRx kinase panel; conditions: Compound concentration 1.0 uM
[30] = target: Serine/threonine-protein kinase Sgk2 (Homo sapiens) (UniProt Q9HBY8); assay: SGK2 DiscoveRx kinase panel; conditions: Compound concentration 1.0 uM
[31] = target: Serine/threonine-protein kinase 3 (Homo sapiens) (UniProt Q13188); assay: MST2 DiscoveRx kinase panel; conditions: Compound concentration 1.0 uM
[32] = target: Serine/threonine-protein kinase RIO2 (Homo sapiens) (UniProt Q9BVS4); assay: RIOK2 DiscoveRx kinase panel; conditions: Compound concentration 1.0 uM
[33] = target: Myosin light chain kinase (Homo sapiens) (UniProt Q32MK0); assay: MLCK DiscoveRx kinase panel; conditions: Compound concentration 1.0 uM
[34] = target: Serine/threonine-protein kinase RIO1 (Homo sapiens) (UniProt Q9BRS2); assay: RIOK1 DiscoveRx kinase panel; conditions: Compound concentration 1.0 uM
[35] = target: Serine/threonine-protein kinase 32A (Homo sapiens) (UniProt Q8WU08); assay: YANK1 DiscoveRx kinase panel; conditions: Compound concentration 1.0 uM
[36] = target: Ankyrin repeat and protein kinase domain-containing protein 1 (Homo sapiens) (UniProt Q8NFD2); assay: ANKK1 DiscoveRx kinase panel; conditions: Compound concentration 1.0 uM
[37] = target: Muscarinic acetylcholine receptor M4 (Homo sapiens) (UniProt P08173); conditions: Compound concentration 10.0 uM
[38] = target: Uncharacterized serine/threonine-protein kinase SBK3 (Homo sapiens) (UniProt P0C264); assay: SgK110 DiscoveRx kinase panel; conditions: Compound concentration 1.0 uM
[39] = target: Myotonin-protein kinase (Homo sapiens) (UniProt Q09013); assay: DMPK DiscoveRx kinase panel; conditions: Compound concentration 1.0 uM
[40] = target: Mitogen-activated protein kinase 12 (Homo sapiens) (UniProt P53778); assay: p38-gamma DiscoveRx kinase panel; conditions: Compound concentration 1.0 uM
[41] = target: Mitogen-activated protein kinase 6 (Homo sapiens) (UniProt Q16659); assay: ERK3 DiscoveRx kinase panel; conditions: Compound concentration 1.0 uM
[42] = target: G protein-coupled receptor kinase 3 (Homo sapiens) (UniProt P35626); assay: GRK3 DiscoveRx kinase panel; conditions: Compound concentration 1.0 uM
[43] = target: Non-receptor tyrosine-protein kinase TNK1 (Homo sapiens) (UniProt Q13470); assay: TNK1 DiscoveRx kinase panel; conditions: Compound concentration 1.0 uM
[44] = target: Mitogen-activated protein kinase 3 (Homo sapiens) (UniProt P27361); assay: ERK1 DiscoveRx kinase panel; conditions: Compound concentration 1.0 uM
[45] = target: Serine/threonine-protein kinase tousled-like 2 (Homo sapiens) (UniProt Q86UE8); assay: TLK2 DiscoveRx kinase panel; conditions: Compound concentration 1.0 uM
[46] = target: Serine/threonine-protein kinase LATS2 (Homo sapiens) (UniProt Q9NRM7); assay: LATS2 DiscoveRx kinase panel; conditions: Compound concentration 1.0 uM
HT1197 = assay: HT-1197 cell line Proliferation assay; format: functional, Homo sapiens; conditions: time 4 day
[47] = target: Cyclin-dependent kinase-like 5 (Homo sapiens) (UniProt O76039); assay: CDKL5 DiscoveRx kinase panel; conditions: Compound concentration 1.0 uM

Adenosine receptor A2a (Homo sapiens), sequence (P29274 whole entry): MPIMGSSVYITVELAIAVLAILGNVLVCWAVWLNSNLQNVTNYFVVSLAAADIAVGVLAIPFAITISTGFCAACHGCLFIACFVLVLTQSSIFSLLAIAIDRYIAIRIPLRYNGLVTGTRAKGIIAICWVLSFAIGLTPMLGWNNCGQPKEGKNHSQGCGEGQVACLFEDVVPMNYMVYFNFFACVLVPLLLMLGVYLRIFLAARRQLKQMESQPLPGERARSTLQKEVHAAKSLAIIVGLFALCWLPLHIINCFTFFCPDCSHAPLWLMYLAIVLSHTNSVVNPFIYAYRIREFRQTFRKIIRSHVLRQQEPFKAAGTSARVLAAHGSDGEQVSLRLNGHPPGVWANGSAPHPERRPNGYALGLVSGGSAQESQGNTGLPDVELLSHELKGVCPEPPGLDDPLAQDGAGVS
Rhodopsin kinase GRK7 (Homo sapiens), sequence (Q8WTQ7 whole entry): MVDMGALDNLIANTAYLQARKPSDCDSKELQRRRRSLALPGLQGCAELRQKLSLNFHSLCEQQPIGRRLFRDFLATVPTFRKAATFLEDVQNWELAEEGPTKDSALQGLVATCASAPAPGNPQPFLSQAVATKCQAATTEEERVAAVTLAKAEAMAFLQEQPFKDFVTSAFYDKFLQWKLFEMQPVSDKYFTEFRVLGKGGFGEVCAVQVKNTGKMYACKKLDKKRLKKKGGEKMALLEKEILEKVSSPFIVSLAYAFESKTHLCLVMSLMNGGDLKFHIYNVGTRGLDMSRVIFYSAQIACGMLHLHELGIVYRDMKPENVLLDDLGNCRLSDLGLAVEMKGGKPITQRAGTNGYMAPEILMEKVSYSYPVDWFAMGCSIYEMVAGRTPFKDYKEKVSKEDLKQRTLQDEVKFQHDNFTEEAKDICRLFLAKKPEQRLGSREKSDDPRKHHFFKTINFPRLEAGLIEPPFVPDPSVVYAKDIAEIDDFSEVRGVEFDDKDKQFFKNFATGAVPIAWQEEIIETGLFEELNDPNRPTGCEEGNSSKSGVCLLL
Serine/threonine-protein kinase tousled-like 2 (Homo sapiens), sequence (Q86UE8 whole entry, looked up): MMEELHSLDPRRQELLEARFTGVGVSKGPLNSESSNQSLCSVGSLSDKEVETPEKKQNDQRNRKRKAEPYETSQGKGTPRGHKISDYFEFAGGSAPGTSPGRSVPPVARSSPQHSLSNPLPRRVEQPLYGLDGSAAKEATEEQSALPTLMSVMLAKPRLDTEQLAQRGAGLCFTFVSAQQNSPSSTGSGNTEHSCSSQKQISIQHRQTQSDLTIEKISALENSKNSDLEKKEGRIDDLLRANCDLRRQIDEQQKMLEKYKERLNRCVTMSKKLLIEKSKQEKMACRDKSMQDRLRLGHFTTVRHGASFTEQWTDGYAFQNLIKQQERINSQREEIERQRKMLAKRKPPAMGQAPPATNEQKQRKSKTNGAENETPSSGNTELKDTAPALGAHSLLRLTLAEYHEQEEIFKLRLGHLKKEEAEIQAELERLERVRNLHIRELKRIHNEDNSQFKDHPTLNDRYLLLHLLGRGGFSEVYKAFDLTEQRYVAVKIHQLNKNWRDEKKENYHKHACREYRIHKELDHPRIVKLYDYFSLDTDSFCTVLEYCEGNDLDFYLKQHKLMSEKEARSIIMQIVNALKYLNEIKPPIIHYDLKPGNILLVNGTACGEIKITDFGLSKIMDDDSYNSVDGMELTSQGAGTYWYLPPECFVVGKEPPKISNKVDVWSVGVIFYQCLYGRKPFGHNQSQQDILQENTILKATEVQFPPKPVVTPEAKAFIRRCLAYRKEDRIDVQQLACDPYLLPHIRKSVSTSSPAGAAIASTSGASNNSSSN
Homeodomain-interacting protein kinase 2 (Homo sapiens), sequence (Q9H2X6 whole entry, looked up): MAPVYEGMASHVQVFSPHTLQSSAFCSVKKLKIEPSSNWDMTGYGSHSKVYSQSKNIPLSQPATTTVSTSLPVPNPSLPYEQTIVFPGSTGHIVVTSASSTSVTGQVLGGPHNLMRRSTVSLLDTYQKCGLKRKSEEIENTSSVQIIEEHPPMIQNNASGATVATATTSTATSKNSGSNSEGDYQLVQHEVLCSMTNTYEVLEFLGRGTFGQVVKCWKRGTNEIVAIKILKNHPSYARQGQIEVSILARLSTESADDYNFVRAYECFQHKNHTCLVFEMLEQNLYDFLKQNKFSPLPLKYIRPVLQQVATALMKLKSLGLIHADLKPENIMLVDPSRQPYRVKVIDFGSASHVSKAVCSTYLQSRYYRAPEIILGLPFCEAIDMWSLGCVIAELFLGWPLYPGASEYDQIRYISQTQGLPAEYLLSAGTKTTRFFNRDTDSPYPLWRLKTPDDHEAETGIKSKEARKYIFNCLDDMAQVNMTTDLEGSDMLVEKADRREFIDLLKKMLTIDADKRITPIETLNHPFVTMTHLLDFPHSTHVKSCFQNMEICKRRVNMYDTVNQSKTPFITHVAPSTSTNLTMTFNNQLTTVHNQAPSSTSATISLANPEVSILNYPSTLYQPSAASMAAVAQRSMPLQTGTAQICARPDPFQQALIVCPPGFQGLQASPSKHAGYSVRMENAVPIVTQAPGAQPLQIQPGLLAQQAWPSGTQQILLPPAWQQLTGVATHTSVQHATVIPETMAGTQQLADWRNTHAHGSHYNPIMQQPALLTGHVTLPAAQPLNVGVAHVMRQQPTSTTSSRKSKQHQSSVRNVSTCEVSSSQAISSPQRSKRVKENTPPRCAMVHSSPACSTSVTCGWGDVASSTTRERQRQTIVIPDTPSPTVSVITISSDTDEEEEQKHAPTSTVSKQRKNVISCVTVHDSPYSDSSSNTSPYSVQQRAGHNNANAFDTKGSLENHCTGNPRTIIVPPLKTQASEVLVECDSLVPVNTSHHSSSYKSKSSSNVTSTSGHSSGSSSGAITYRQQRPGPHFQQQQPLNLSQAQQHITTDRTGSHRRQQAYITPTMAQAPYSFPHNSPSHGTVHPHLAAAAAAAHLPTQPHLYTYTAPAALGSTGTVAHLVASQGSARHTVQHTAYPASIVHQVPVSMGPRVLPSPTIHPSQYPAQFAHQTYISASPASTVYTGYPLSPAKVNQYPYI
Protein kinase C theta type (Homo sapiens), sequence (Q04759 whole entry, looked up, canonical isoform): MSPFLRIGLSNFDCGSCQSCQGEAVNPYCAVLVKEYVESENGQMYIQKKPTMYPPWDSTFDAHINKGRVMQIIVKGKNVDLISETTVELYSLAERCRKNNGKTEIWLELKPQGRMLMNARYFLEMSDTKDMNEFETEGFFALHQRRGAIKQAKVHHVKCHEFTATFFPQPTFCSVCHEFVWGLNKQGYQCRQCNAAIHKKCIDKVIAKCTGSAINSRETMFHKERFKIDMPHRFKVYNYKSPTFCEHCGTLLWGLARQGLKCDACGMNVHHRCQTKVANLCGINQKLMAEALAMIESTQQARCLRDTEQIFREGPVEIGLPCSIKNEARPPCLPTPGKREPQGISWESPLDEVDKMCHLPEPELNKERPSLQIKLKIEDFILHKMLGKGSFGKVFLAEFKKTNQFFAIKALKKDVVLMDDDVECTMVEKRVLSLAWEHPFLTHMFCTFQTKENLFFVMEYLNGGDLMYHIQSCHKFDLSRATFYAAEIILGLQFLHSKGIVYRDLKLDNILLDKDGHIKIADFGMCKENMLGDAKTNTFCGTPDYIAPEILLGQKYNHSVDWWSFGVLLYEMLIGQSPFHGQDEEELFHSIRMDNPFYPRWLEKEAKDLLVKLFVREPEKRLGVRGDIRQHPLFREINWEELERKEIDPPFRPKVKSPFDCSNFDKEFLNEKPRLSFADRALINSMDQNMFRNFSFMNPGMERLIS
Mitogen-activated protein kinase kinase kinase 2 (Homo sapiens), sequence (Q9Y2U5 whole entry): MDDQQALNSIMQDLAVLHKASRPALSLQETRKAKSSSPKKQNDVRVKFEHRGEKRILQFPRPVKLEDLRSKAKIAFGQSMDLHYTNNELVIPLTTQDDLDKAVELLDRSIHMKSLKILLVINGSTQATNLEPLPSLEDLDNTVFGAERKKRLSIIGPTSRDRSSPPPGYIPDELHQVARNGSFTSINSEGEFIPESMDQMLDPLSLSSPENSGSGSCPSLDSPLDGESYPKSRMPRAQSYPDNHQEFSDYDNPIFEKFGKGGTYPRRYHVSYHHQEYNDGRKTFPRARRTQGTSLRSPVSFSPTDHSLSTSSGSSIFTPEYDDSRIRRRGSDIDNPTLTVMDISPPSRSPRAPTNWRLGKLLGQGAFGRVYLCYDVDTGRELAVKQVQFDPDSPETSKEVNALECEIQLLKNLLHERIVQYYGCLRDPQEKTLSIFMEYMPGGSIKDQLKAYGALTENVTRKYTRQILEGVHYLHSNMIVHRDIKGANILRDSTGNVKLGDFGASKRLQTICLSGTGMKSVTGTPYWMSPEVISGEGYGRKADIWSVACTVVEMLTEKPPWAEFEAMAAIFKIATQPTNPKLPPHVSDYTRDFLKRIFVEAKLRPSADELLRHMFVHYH
Mitogen-activated protein kinase 12 (Homo sapiens), sequence (P53778 whole entry): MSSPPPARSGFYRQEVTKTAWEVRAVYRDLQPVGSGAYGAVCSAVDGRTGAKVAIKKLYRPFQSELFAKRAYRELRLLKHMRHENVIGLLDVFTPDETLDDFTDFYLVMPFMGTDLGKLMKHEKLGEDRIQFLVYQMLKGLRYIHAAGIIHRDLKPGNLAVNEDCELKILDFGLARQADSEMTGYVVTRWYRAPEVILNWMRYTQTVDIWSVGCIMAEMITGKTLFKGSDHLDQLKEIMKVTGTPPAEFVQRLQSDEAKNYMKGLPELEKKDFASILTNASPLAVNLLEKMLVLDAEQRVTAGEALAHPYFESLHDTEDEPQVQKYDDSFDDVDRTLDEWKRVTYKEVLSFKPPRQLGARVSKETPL
Cyclin-dependent kinase 5 (Homo sapiens), sequence (Q00535 whole entry, looked up): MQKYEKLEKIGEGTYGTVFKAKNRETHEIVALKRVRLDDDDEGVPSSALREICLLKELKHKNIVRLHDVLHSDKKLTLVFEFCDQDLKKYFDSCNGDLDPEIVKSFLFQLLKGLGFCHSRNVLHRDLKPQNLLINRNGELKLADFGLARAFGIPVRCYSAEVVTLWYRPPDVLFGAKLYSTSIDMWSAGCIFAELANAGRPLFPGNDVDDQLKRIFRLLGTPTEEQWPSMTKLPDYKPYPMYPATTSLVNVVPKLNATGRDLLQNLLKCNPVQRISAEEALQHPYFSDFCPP

COc1cnccc1Nc1nc(-c2nn(Cc3c(F)cc(OCCO)cc3F)c3ccccc23)ncc1OC
inhibition [1]: 4%
inhibition [2]: 67%
residual activity [3]: 92%
residual activity [4]: 81%
residual activity [5]: 100%
residual activity [6]: 85%
residual activity [7]: 58%
inhibition at 90 min, 10 µM [8]: 8% (not active)
residual activity [9]: 100%
residual activity [10]: 60%
residual activity [11]: 100%
residual activity [12]: 100%
residual activity [13]: 81%
residual activity [14]: 77%
inhibition [15]: 22%
inhibition [16]: 26%
inhibition [17]: 15.2%
residual activity [18]: 100%
residual activity [19]: 95%
residual activity [20]: 71%
residual activity [21]: 100%
residual activity [22]: 97%
residual activity [23]: 100%
Cell Proliferation IC50 (SK-BR-3): 1100 nM
residual activity [24]: 41%
residual activity [25]: 97%
residual activity [26]: 97%
residual activity [27]: 100%
residual activity [28]: 77%
residual activity [29]: 80%
residual activity [30]: 100%
residual activity [31]: 82%
residual activity [32]: 100%
residual activity [33]: 72%
residual activity [34]: 79%
residual activity [35]: 71%
residual activity [36]: 100%
inhibition [37]: 8%
residual activity [38]: 100%
residual activity [39]: 100%
residual activity [40]: 83%
residual activity [41]: 93%
residual activity [42]: 100%
residual activity [43]: 62%
residual activity [44]: 88%
residual activity [45]: 96%
residual activity [46]: 100%
Cell Proliferation IC50 (HT1197): 4900 nM
residual activity [47]: 100%
